Assay results taken from US20250282830A1, “ANTI-VIRAL PEPTIDE COMPOSITIONS AND METHODS TO IMPROVE BIOLOGICAL ACTIVITY THEREOF” (priority 2021, published 2025).
No end group written: not given here.

How the values were obtained:
DENV-2 = assay: Plaque reduction neutralization assay, DENV-2; assay type: cell-based, Dengue virus serotype 2; settings: Vero cells; virus pre-incubated with peptide 1 h at 37° C.; read-out: DENV-2 PRNT50
Procedure: (§1) Vero cells were seeded at 1×10^5 cells per well and incubated overnight. Twofold serial dilutions of peptide were incubated with 200-300 p.f.u. of virus for 1 h at 37° C. Cells were infected with the virus-peptide mixture for 1 h at 37° C. The inoculum was removed and 0.8% (wt/vol) methylcellulose in medium supplemented with 1% FBS was added. After 3-5 days incubation, plates were fixed and analysed for plaques by immunostaining (DENV). For immunostaining, the cells were fixed, followed by incubation with 4G2, a mouse anti-DENV E protein monoclonal antibody (1:2,000 dilution), for 16-20 h. After addition of a secondary antibody, goat anti-mouse IgG (H+L)-HRP conjugate (1:2,000 dilution), the TrueBlue peroxidase substrate (KPL) was added and the optical density was measured at a wavelength of 450 nm. For crystal violet staining, cells were fixed with fixing solution (5% glutaric dialdehyde in Dulbecco's PBS) followed by staining with 0.1% crystal violet in fixing solution. The IC50 value was calculated by comparing the relative number of plaques in peptide-treated samples to virus-only samples using a four-parameter logistic curve fit.

DENV-3 = assay: Plaque reduction neutralization assay, DENV-3; assay type: cell-based, Dengue virus serotype 3; settings: Vero cells; virus pre-incubated with peptide 1 h at 37° C.; read-out: DENV-3 PRNT50
Procedure: as §1

DENV-4 = assay: Plaque reduction neutralization assay, DENV-4; assay type: cell-based, Dengue virus serotype 4; settings: Vero cells; virus pre-incubated with peptide 1 h at 37° C.; read-out: DENV-4 PRNT50
Procedure: as §1

DENV-1 = assay: Plaque reduction neutralization assay, DENV-1; assay type: cell-based, Dengue virus serotype 1; settings: Vero cells; virus pre-incubated with peptide 1 h at 37° C.; read-out: DENV-1 PRNT50
Procedure: as §1

[1] = Time-lapse fluorescence microscopy imaging of peptide-induced vesicle rupture
Procedure: Highly parallel measurements of peptide-induced liposome rupture were conducted by time-lapsed epifluorescence microscopy imaging. An Eclipse Ti-E inverted microscope (Nikon) with a high-pressure mercury lamp, a CFI Plan Apochromat TIRF×60 oil-immersion objective (NA 1.49; Nikon) and an Andor iXon3 897 EMCCD camera (Andor Technology), was utilized for measurements. The samples were illuminated with a mercury lamp (Intenslight C-HGFIE) using a TRITC filter set. Briefly, glass coverslips were assembled into a microfluidic flow cell, and coated with a thin layer of PLL-g-PEG(-biotin), followed by tethering of 0.025 μg ml^−1 liposomes via biotin-neutravidin coupling. Peptide was then added at a volumetric rate of 100 μl min^−1, and micrographs were recorded every 5-30 s depending on the particular experiment. The initial time was defined by when the peptide solution entered the channel inlet. Data processing and analysis were conducted using ImageJ (National Institutes of Health) and Python(x,y) software packages. The diameter of individual liposomes was estimated based on fluorescence intensity values. […]
Using time-lapse fluorescence microscopy imaging, we further investigated the interactions of different versions of Peptides 2 and 4 with tethered vesicles at the single-vesicle level and saw different degrees of vesicle rupture in terms of total extent and speed (FIG. 14).

| Sequence | IC50 (DENV-2) | IC50 (DENV-3) | IC50 (DENV-4) | IC50 (DENV-1) | Vesicle rupture time, calcein (Cal) dye release ([1]; 100 nM peptide) | Vesicle rupture time, rhodamine (Rh) dye release ([1]; 100 nM peptide) | Vesicle rupture time, calcein (Cal) dye release ([1]; 1000 nM peptide) | Vesicle rupture time, rhodamine (Rh) dye release ([1]; 1000 nM peptide) | Dependence of vesicle rupture on vesicle size (membrane-curvature sensing), single-vesicle analysis ([1]; small and large tethered vesicles) |
| --- | --- | --- | --- | --- | --- | --- | --- | --- | --- |
| SGSWLRDVWDWVCTILTDFKNWLTSKL [Peptide N3O] | 308 nM | 1020 nM | 288 nM | 182 nM |  |  |  |  |  |
| AESWLWEVWDWVLHVLSDFKTCLKAKF [Peptide N10N] | 936 nM | 259 nM | 720 nM | 201 nM |  |  |  |  |  |
| SGSWLRDIWDWICEVLSDFKTWLKAKL [Peptide N1N] | 402 nM | 3230 nM | 1100 nM | 218 nM |  |  |  |  |  |
| SGSWLRDIWEWVCSILTDFKNWLSAKL (Synthetic_Anti-viral peptide derived from hepatitis C virus NS5A protein) [Peptide 4] |  |  |  |  | 6.50 ± 0.3 min | 21.13 ± 0.38 min | 3.71 ± 0.07 min | 9.51 ± 0.09 min |  |
| SGSWLRDIWEWVCSILTDFKNWLSAKL [Peptide O4O] | 1210 nM | 2190 nM | 1560 nM | 365 nM |  |  |  |  |  |
| GDDWLHDIWDWVCIVLSDFKTWLSAKI [Peptide O8O] | 188 nM | 444 nM | 709 nM | 69.2 nM |  |  |  |  |  |
| DGNWLYDIWNWVCTVLADFKLWLGAKI [Peptide N9N] | 550 nM | 476 nM | 80.2 nM | 96.9 nM |  |  |  |  |  |
| SDDWLRTIWDWVCSVLADFKAWLSAKI [Peptide N7O] | 1880 nM | 2380 nM | 198 nM | 723 nM |  |  |  |  |  |
| SGSWLRDIWEWVCSILTDFKNWLSAKL [Peptide N4O] | 556 nM | 2790 nM | 333 nM | 278 nM |  |  |  |  |  |
| DGNWLYDIWNWVCTVLADFKLWLGAKI (Synthetic_Anti-viral peptide derived from hepatitis C virus NS5A protein) [Peptide 9] |  |  |  |  | 4.22 ± 0.17 min | 6.50 ± 0.07 min | 1.41 ± 0.03 min | 1.87 ± 0.014 min |  |
| SGSWLRDIWDWICEVLSDFKTWLKAKL (Synthetic_Anti-viral peptide derived from hepatitis C virus NS5A protein) [Peptide 1] |  |  |  |  | 5.95 ± 0.03 min | 10.58 ± 0.33 min | 4.67 ± 0.32 min | 6.13 ± 0.09 min |  |
| SGDWLRIIWDWVCSVVSDFKTWLSAKI (Synthetic_Anti-viral peptide derived from hepatitis C virus NS5A protein) [Peptide 6] |  |  |  |  | 2.46 ± 0.02 min | 4.75 ± 0.06 min | 1.57 ± 0.03 min | 2.74 ± 0.03 min |  |
| SGSWLRDVWDWVCTILTDFKNWLTSKL [Peptide N3N] | 389 nM | 936 nM | 139 nM | 121 nM |  |  |  |  |  |
| SGSWLRDVWDWVCTILTDFKNWLTSKL [Peptide O3O] | 292 nM | 237 nM | 267 nM | 148 nM |  |  |  |  |  |
| SDDWLRIIWDWVCSVVSDFKAWLSAKI [Peptide O5O] | 164 nM | 176 nM | 278 nM | 37.2 nM |  |  |  |  |  |
| SGDWLRIIWDWVCSVVSDFKTWLSAKI [Peptide N6O] | 554 nM | 1470 nM | 273 nM | 218 nM |  |  |  |  |  |
| SDDWLRTIWDWVCSVLADFKAWLSAKI [Peptide O7O] | 299 nM | 213 nM | 433 nM | 36 nM |  |  |  |  |  |
| GDDWLHDIWDWVCIVLSDFKTWLSAKI [Peptide N8O] | 257 nM | 648 nM | 343 nM | 224 nM |  |  |  |  |  |

| Sequence | IC50 (DENV-2) | IC50 (DENV-3) | IC50 (DENV-4) | IC50 (DENV-1) | Vesicle rupture time, calcein (Cal) dye release ([1]; 100 nM peptide) | Vesicle rupture time, rhodamine (Rh) dye release ([1]; 100 nM peptide) | Vesicle rupture time, calcein (Cal) dye release ([1]; 1000 nM peptide) | Vesicle rupture time, rhodamine (Rh) dye release ([1]; 1000 nM peptide) | Dependence of vesicle rupture on vesicle size (membrane-curvature sensing), single-vesicle analysis ([1]; small and large tethered vesicles) |
| --- | --- | --- | --- | --- | --- | --- | --- | --- | --- |
| SGSWLRDVWDWICTVLTDFKTWLQSKL [O2O] (not fully specified) [Peptide O2O, Peptide 2 with O and O terminal endings] |  |  |  |  |  |  |  |  | have membrane-curvature sensing mechanisms |
| DGNWLYDIWNWVCTVLADFKLWLGAKI [Peptide N9O] | 185 nM | 262 nM | 240 nM | 139 nM |  |  |  |  |  |
| AESWLWEVWDWVLHVLSDFKTCLKAKF (Synthetic_Anti-viral peptide derived from hepatitis C virus NS5A protein) [Peptide 10] |  |  |  |  | 2.38 ± 0.05 min | 10.09 ± 0.10 min | 2.06 ± 0.02 min | 2.09 ± 0.05 min |  |
| GSTWLRDIWDWVCTVLSDFRVWLKSKL (Synthetic_Anti-viral peptide derived from hepatitis C virus NS5A protein) [Peptide 11] |  |  |  |  | 4.15 ± 0.04 min | 6.00 ± 0.13 min | 4.67 ± 0.08 min | 4.91 ± 0.38 min |  |
| SDDWLRTIWDWVCSVLADFKAWLSAKI (Synthetic_Anti-viral peptide derived from hepatitis C virus NS5A protein) [Peptide 7] |  |  |  |  | 2.41 ± 0.06 min | 5.50 ± 0.11 min | 1.47 ± 0.01 min | 2.13 ± 0.00 min |  |
| GSTWLRDIWDWVCTVLSDFRVWLKSKL [Peptide N11O] | 280 nM | 947 nM | 276 nM | 131 nM |  |  |  |  |  |
| SDDWLRIIWDWVCSVVSDFKAWLSAKI (Synthetic_Anti-viral peptide derived from hepatitis C virus NS5A protein) [Peptide 5] |  |  |  |  | 4.69 ± 0.22 min | 15.25 ± 0.43 min | 2.53 ± 0.10 min | 11.20 ± 0.17 min |  |
| AESWLWEVWDWVLHVLSDFKTCLKAKF [Peptide N100] | 362 nM | 1110 nM | 1150 nM | 194 nM |  |  |  |  |  |
| SGDWLRIIWDWVCSVVSDFKTWLSAKI [Peptide O6O] | 412 nM | 334 nM | 273 nM | 68 nM |  |  |  |  |  |
| AESWLWEVWDWVLHVLSDFKTCLKAKF [Peptide O100] | 396 nM | 316 nM | 567 nM | 60.3 nM |  |  |  |  |  |
| SGSWLRDVWDWVCTILTDFKNWLTSKL [Peptide 3] |  |  |  |  | 4.53 ± 0.17 min | 8.41 ± 0.08 min | 1.97 ± 0.11 min | 2.99 ± 0.03 min |  |
| SGDWLRIIWDWVCSVVSDFKTWLSAKI [Peptide N6N] | 536 nM | 2780 nM | 165 nM | 162 nM |  |  |  |  |  |
| DGNWLYDIWNWVCTVLADFKLWLGAKI [Peptide O9O] | 192 nM | 119 nM | 139 nM | 50 nM |  |  |  |  |  |
| SGSWLRDIWDWICEVLSDFKTWLKAKL [Peptide N1O] | 363 nM | 974 nM | 294 nM | 219 nM |  |  |  |  |  |
| SDDWLRTIWDWVCSVLADFKAWLSAKI [Peptide N7N] | 562 nM | 1140 nM | 242 nM | 171 nM |  |  |  |  |  |
| GDDWLHDIWDWVCIVLSDFKTWLSAKI (Synthetic_Anti-viral peptide derived from hepatitis C virus NS5A protein) [Peptide 8] |  |  |  |  | 2.49 ± 0.06 min | 3.28 ± 0.08 min | 1.70 ± 0.02 min | 1.78 ± 0.02 min |  |
| SGSWLRDVWDWICTVLTDFKTWLQSKL [Peptide 2] |  |  |  |  | 5.54 ± 0.30 min | 8.69 ± 0.08 min | 1.91 ± 0.04 min | 3.13 ± 0.12 min |  |
